According to US8759400B2, “Histone deacetylase inhibitors for enhancing activity of antifungal agents” (MethylGene Inc., priority 2005, dated 2014):
Converted amounts (≈) assume the structure as drawn. Where two headings read alike, the source gives them in different places.

Test system: C. glabrata parent strain (ATCC 90030) and C. glabrata mutants
Assay: microbe, parasite or virus in culture
Assay type: cell-based
Settings: for MIC80: C. glabrata parent strain
[1] = C. glabrata (ATCC 90030) parent strain

Compound	4-fold synergy Fluconazole/Cpd 4 [1]	4-fold synergy Itraconazole/Cpd 4 [1]	Compound 4 concentration for synergy with azoles (itraconazole, fluconazole, all azole-resistant mutants tested) [µg/mL]	Compound 4 concentration lowering itraconazole MIC80 (itraconazole-resistant mutants) [µg/mL]	MIC80 (Nakaseomyces glabratus, ATCC90030, azole alone) [µg/mL]	MIC (Nakaseomyces glabratus, ATCC90030, read-out: fluconazole MIC in presence of Compound 4, fluconazole-resistant mutants) [µg/mL]	MIC (Nakaseomyces glabratus, ATCC90030, read-out: fluconazole MIC in presence of Compound 4, susceptible parent) [µg/mL]	MIC80 (azole alone) [µg/mL]
O=C(Cc1ccc(CCCCc2ccccc2)cc1)NO [Cpd 4]	0.25–0.5 ug/ml Cpd 4	0.25–0.5 ug/ml Cpd 4	≤ 4	≤ 44	–	–	–	–
OC(Cn1cncn1)(Cn1cncn1)c1ccc(F)cc1F [fluconazole]	–	–	–	–	32 (≈ 104 µM)	4 to 32	4 to 8	32 to 64
